Results on 23 compounds are retold here after patent US20250186452A1, “NOVEL USE OF QUINOLINE COMPOUND” (TARAPEUTICS SCIENCE INC., priority 2022, published 2025).

Read-outs that look alike come from different tables or passages of the source.

The test system of assay [1] is M-NSF-60. Briefly: Proliferation of M-NSF-60 cells with M-CSF (CCK-8, 72 hours). In kind it is cell-based, mouse. The settings on record: for GI50: Mus musculus, read-out: M-NSF-60 (GI50/μM). The method, then:
(§1) The incubated cells were detected by CCK-8 (purchased from MedChem Express, China) cell viability detection kit (CCK-8 can be reduced by dehydrogenases in living cells to a highly water-soluble yellow formazan product, and the amount of the generated formazan product is proportional to the number of living cells). The number of living cells was quantified by a microplate reader, and the GI50 for each compound was calculated (the results are shown in Table 2).

The target in assay [2] is T1, TEL-CSF1R-BaF3 (Homo sapiens, UniProt P07333).
T1 construct: expressed in transfected cells; host or cells: mouse BaF3 cells (ATCC), retroviral transduction with MSCV-Puro vector, IL-3 withdrawn; the other entry of the earlier key: ETV6 (P41212, Transcription factor ETV6)
T1 sequence (P07333 582-910 limits assumed): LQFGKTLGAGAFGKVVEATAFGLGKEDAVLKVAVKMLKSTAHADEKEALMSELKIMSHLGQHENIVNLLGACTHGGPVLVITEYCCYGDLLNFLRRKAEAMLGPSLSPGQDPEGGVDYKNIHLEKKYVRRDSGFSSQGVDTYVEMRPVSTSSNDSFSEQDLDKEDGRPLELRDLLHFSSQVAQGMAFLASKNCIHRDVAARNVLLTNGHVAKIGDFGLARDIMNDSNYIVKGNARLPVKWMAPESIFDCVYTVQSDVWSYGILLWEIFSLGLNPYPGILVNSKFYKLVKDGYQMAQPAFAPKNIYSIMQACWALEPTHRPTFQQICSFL
Briefly: Proliferation of TEL-CSF1R-BaF3 cells (CCK-8, 72 hours). In kind it is cell-based. To be noted: for GI50: 72 hours incubation, CCK-8. The method, then: as §1
The construction method of the TEL-CSF1R-BaF3 cell line (a cell line stably expressing CSF1R kinase) was as follows: the sequence of human CSF1R kinase region was amplified by PCR and inserted into the MSCV-Puro vector (Clontech) with an N-terminal TEL fragment, and stably transferred into mouse BaF3 cells (purchased from ATCC, USA) by a retroviral method, and IL-3 growth factor was removed, finally a cell line dependent on CSF1R transferred protein was obtained.

Where [3] appears, read: M-CSF 50 ng/ml in medium, 72 hours incubation, CCK-8.
Where [4] appears, read: result in words, summary of Table 2.

Regarding `COc1cc2nccc(Oc3ccc(NC(=O)Cc4ccc(C)c(F)c4)cc3)c2cc1OC` [Example 16, N-(4-((6,7-dimethoxyquinolin-4-yl)oxy)phenyl)-2-(3-fluoro-4-methylphenyl)acetamide], the figures for the GI50 in assay [1] (setting [3]) and in assay [2] were 0.033 µM and 0.001 µM, respectively.

On to `COc1cc2nccc(Oc3ccc(NC(=O)Cc4ccc(Cl)c(C(F)(F)F)c4)c(Cl)c3)c2cc1OC` [Example 23, N-(2-chloro-4-((6,7-dimethoxyquinolin-4-yl)oxy)phenyl)-2-(4-chloro-3-(trifluoromethyl)phenyl)acetamide], for which the values for the GI50 in assay [1] (setting [3]) and in assay [2] were 0.061 µM and 0.008 µM, respectively.

Turning to `COc1cc2nccc(Oc3ccc(NC(=O)Cc4ccc(C)c(C)c4)cc3)c2cc1OC` [Example 11, N-(4-((6.7-dimethoxyquinolin-4-yl)oxy)phenyl)2-(3,4-dimethylphenyl)acetamide], the GI50 is 0.005 µM in assay [1] (setting [3]) and 0.001 µM in assay [2].

`COc1cc2nccc(Oc3ccc(NC(=O)Cc4cccc(F)c4)cc3)c2cc1OC` [Example 20, N-(4-((6,7-dimethoxyquinolin-4-yl)oxy)phenyl)-2-(3-fluorophenyl)acetamide]: the values for the GI50 in assay [1] (setting [3]) and in assay [2] were 0.13 µM and 0.006 µM, respectively.

Take `COc1cc2nccc(Oc3ccc(NC(=O)Cc4ccc(Cl)c(C(F)(F)F)c4)c(F)c3)c2cc1OC` [Example 24, N-(2-fluoro-4-((6,7-dimethoxyquinolin-4-yl)oxy)phenyl)-2-(4-chloro-3-(trifluoromethyl)phenyl)acetamide]: the GI50 in assay [1] (setting [3]) worked out at 0.024 µM; in assay [2], 0.002 µM.

`COc1cc2nccc(Oc3ccc(NC(=O)Cc4ccc(F)c(F)c4)cc3)c2cc1OC` [Example 12, N-(4-((6,7-dimethoxyquinolin-4-yl)oxy)phenyl)-2-(3,4-difluorophenyl)acetamide]: the GI50 in assay [1] (setting [3]) is 0.065 µM; in assay [2], 0.003 µM.

Take `COc1cccc(CC(=O)Nc2ccc(Oc3ncnc4cc(OC)c(OC)cc34)cc2)c1` [Comparative Example 4, N-(4-((6,7-dimethoxyquinazolin-4-yl)oxy)phenyl)-2-(3-methoxyphenyl)acetamide, reference compound]: the GI50 in assay [1] (setting [3]) turned out to be 0.55 µM; in assay [2], 0.17 µM. Moreover, in assay [1] (setting [4]), the “inhibitory effect on the proliferation of M-NSF-60” value is listed as “certain inhibitory activity”. In addition, the “inhibitory effect on the proliferation of TEL-CSF1R-BaF3” value in assay [2] (setting [4]) was “certain inhibitory activity”.

In the case of `COc1cc2nccc(Oc3ccc(NC(=O)Cc4ccc(C)c(C(F)(F)F)c4)cc3)c2cc1OC` [Example 1, N-(4-((6,7-dimethoxyquinolin-4-yl)oxy)phenyl)-2-(4-methyl-3-(trifluoromethyl)phenyl)acetamide], the GI50 was determined as 0.009 µM in assay [1] (72 h) and 0.002 µM in assay [2].

For the compound `COc1cc2nccc(Oc3ccc(NC(=O)Cc4ccc(Cl)c(F)c4)cc3)c2cc1OC` [Example 5, N-(4-((6,7-dimethoxyquinolin-4-yl)oxy)phenyl)-2-(4-chloro-3-fluorophenyl)acetamide], the GI50 in assay [1] (setting [3]) came out at 0.035 µM; in assay [2] it was 0.001 µM.

Turning to `COc1cc2nccc(Oc3ccc(NC(=O)Cc4ccc(Cl)c(C(F)(F)F)c4)cc3Cl)c2cc1OC` [Example 38, N-(3-chloro-4-((6,7-dimethoxyquinolin-4-yl)oxy)phenyl)-2-(4-chloro-3-(trifluoromethyl)phenyl)acetamide], the figures for the GI50 in assay [1] (setting [3]) and in assay [2] were 0.32 µM and 0.026 µM, respectively.

For `COc1cc2nccc(Oc3ccc(NC(=O)Cc4c(F)cccc4F)cc3)c2cc1OC` [Example 14, N-(4-((6,7-dimethoxyquinolin-4-yl)oxy)phenyl)-2-(2,6-difluorophenyl)acetamide], the results for the GI50 in assay [1] (setting [3]) and in assay [2] were 0.26 µM and 0.012 µM, respectively.

Take `COc1cc2nccc(Oc3ccc(NC(=O)Cc4ccc(F)cc4F)cc3)c2cc1OC` [Example 15, N-(4-((6,7-dimethoxyquinolin-4-yl)oxy)phenyl)-2-(2,4-difluorophenyl)acetamide]: the GI50 in assay [1] (setting [3]) was found to be 0.051 µM; in assay [2], 0.003 µM.

In the case of `COc1ccc(CC(=O)Nc2ccc(Oc3ccnc4cc(OC)c(OC)cc34)cc2)cc1OC` [Example 10, N-(4-((6,7-dimethoxyquinolin-4-yl)oxy)phenyl)-2-(3,4-dimethoxyphenyl)acetamide], the figures for the GI50 in assay [1] (setting [3]) and in assay [2] were 0.038 µM and 0.009 µM, respectively.

As for `COc1cc2nccc(Oc3ccc(NC(=O)Cc4ccc(Cl)c(C(F)(F)F)c4)c(C)c3)c2cc1OC` [Example 26, N-(2-methyl-4-((6,7-dimethoxyquinolin-4-yl)oxy)phenyl)-2-(4-chloro-3-(trifluoromethyl)phenyl)acetamide], the values for the GI50 in assay [1] (setting [3]) and in assay [2] were 0.06 µM and 0.006 µM, respectively.

For the compound `COc1cc2nccc(Oc3ccc(NC(=O)Cc4ccc(Cl)c(C(F)(F)F)c4)cc3C#N)c2cc1OC` [Example 39, N-(3-cyano-4-((6,7-dimethoxyquinolin-4-yl)oxy)phenyl)-2-(4-chloro-3-(trifluoromethyl)phenyl)acetamide], the GI50 in assay [1] (setting [3]) came out at 0.61 µM; in assay [2] it was 0.022 µM.

In assay [2], `COc1cc2nccc(Oc3ccc(NC(=O)NCCCN4CCN(C)CC4)cc3)c2cc1OC` [Example 29, 1-(4-((6,7-dimethoxyquinolin-4-yl)oxy)phenyl)-3-(3-(4-methylpiperazin-1-yl)propyl)urea] had a GI50 of 0.011 µM.

Take `COc1cc2nccc(Oc3ccc(NC(=O)Cc4ccc(Cl)c(C(F)(F)F)c4)cc3F)c2cc1OC` [Example 25, N-(3-fluoro-4-((6,7-dimethoxyquinolin-4-yl)oxy)phenyl)-2-(4-chloro-3-(trifluoromethyl)phenyl)acetamide]: the GI50 was found to be 0.05 µM in assay [1] (setting [3]) and 0.003 µM in assay [2].

Regarding `COc1cc2nccc(Oc3ccc(NC(=O)Cc4ccccc4C(F)(F)F)cc3)c2cc1OC` [Example 40, N-(4-((6,7-dimethoxyquinolin-4-yl)oxy)phenyl)-2-(2-(trifluoromethyl)phenyl)acetamide], the GI50 in assay [1] (setting [3]) was 0.091 µM; in assay [2], 0.007 µM.

With `COc1cc2nccc(Oc3ccc(NC(=O)Cc4cccc(C(F)(F)F)c4)cc3)c2cc1OC` [Example 8, N-(4-((6,7-dimethoxyquinolin-4-yl)oxy)phenyl)-2-(3-(trifluoromethyl)phenyl)acetamide], the figures for the GI50 in assay [1] (setting [3]) and in assay [2] were 0.006 µM and 0.001 µM, respectively.

Regarding `COc1cc2nccc(Oc3ccc(NC(=O)Cc4ccccc4)cc3)c2cc1OC` [Example 3, N-(4-((6,7-dimethoxyquinolin-4-yl)oxy)phenyl)-2-phenylacetamide], the GI50 in assay [1] (setting [3]) is 0.1 µM; in assay [2] it was 0.012 µM.

Regarding `COc1cc2nccc(Oc3ccc(NC(=O)Cc4ccc(C(F)(F)F)cc4)cc3)c2cc1OC` [Example 9, N-(4-((6,7-dimethoxyquinolin-4-yl)oxy)phenyl)-2-(4-(trifluoromethyl)phenyl)acetamide], the GI50 came out at 0.007 µM in assay [1] (setting [3]) and 0.002 µM in assay [2].

`COc1cc2nccc(Oc3ccc(NC(=O)Cc4ccc(C(F)(F)F)cc4)c(Cl)c3)c2cc1OC` [Example 7, N-(2-chloro-4-((6,7-dimethoxyquinolin-4-yl)oxy)phenyl)-2-(4-(trifluoromethyl)phenyl)acetamide]: the GI50 is 0.03 µM in assay [1] (setting [3]) and 0.009 µM in assay [2].

In turn, `COc1cc2nccc(Oc3ccc(NC(=O)NCCCN4CCOCC4)cc3)c2cc1OC` [Example 28, 1-(4-((6,7-dimethoxyquinolin-4-yl)oxy)phenyl)-3-(3-morpholinopropyl)urea] yielded a GI50 in assay [2] of 0.012 µM.
